From US20030055046A1, “Novel pyrido cyclohexenyl phenyl carboxamides tocolytic oxytocin receptor antagonists” (Wyeth, priority 2001, published 2003)
Where a name gives a salt, the structure may show the parent alone.

Target: T1, human oxytocin receptor (Homo sapiens, UniProt P30559)
T1 construct: host or cells: CHO cells, stably transfected (pcDNA3.1 vector)
T1 sequence (P30559 1-389): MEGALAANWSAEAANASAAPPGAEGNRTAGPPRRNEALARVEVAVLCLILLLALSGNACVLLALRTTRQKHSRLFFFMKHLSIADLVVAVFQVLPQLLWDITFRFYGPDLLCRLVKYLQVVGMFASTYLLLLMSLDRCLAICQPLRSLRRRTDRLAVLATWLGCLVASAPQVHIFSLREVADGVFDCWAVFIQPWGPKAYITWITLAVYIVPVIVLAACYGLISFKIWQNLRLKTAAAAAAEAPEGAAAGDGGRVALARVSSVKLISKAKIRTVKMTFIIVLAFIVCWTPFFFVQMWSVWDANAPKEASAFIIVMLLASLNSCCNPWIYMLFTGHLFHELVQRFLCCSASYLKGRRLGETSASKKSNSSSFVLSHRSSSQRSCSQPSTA
Test: Oxytocin binding in CHO cell membranes expressing human oxytocin receptors
Conditions: 100 nM, [3H]oxytocin
Excerpt: Oxytocin binding in Chinese Hamster Ovary cell membranes expressing human oxytocin receptors
Chinese Hamster Ovary (CHO) cells stably transfected with the human oxytocin (cf. Tanizawa et al., U.S. Pat. No. 5,466,584 (1995) to Rohto Pharmaceutical Co. Ltd., Osaka, Japan) were obtained from M. Thibonnier, Case Western Reserve University School of Medicine, Cleveland, Ohio.
A. Passaging and Amplification of Cells:
CHO cells transfected with the human oxytocin receptors obtained from M. Thibonnier (pcDNA3.1 vector) are allowed to grow to confluency (approx. >90%) in T-150 flasks under sterile conditions, in a cell culture medium consisting of F-12 Nutrient Mixture (HAM) with L-glutamine (Gibco Cat.# 11765-054) containing 15 mM HEPES (Gibco Cat.# 15630-080), 1% antibiotic/antimycotic (add 5 mL 100×, Gibco Cat.# 15240-062 per 500 mL F-12), 400 μg/mL of Geneticin (add 4 mL of 50 mg/mL per 500 mL F-12) and 10% Fetal Bovine Serum (Qualified, heat inactivated, Gibco Cat.# 16140-063). The medium is removed by aspiration and the cells are washed with 10 mL of Hank's Balanced Salt solution (Gibco Cat.# 14175-095). The salt solution is removed by aspiration and the cells trypsinized with 5 mL of trypsin-EDTA (0.05% trypsin, 0.53 mM EDTA-4Na, Gibco Cat.# 25300-070) for 1 min The trypsin is removed by aspiration and the cells dislodged by tapping. Cell Culture medium (e.g. 30 mL for 1:30 split) is immediately added and mixed well to inactivate trypsin. 1 mL of detached cells is added to new culture flasks containing fresh Cell Culture medium (e.g. into 25 mL per T-150 flask), and mixed gently. The cells are incubated at 37° C. in 5% CO2. The medium is changed at 3 to 4 days interval (or as appropriate). The cells grow to confluency (approx. >75%-95%) within 7-8 days. All steps are done under sterile conditions.
The cells are washed twice gently with Hank's Balanced Salt solution (eg, use 10 mL per T-150 flask). The excess solution is removed and the cells bathed for 15-30 min. in an enzyme-free Cell Dissociation Buffer (eg, use 8 mL Hank's Based, Gibco Cat.# 13150-016 per T-150 flask) until cells are loosened. The contents are transferred to centrifuge tubes (50 mL size) kept in ice bath. All subsequent steps are done at 4° C. The tubes are centrifuged at 300×g for 15 min (1380 rpm on SORVAL, Model RT6000D, using rotor for 50 mL tubes). The supernatant is discarded and the cells suspended in homogenizing buffer (10 mM Tris-HCl containing 0.25 M sucrose and 1 mM EDTA, pH 7.4) ensuring that the volume of the buffer is about ten times the volume of the cell pellet. The cells are pooled into a centrifuge tube (50 mL) and homogenized with a Polytron at setting 6 for 10 sec. The homogenate is transferred into a Potter-Elvjehm homogenizer and homogenized with 3 strokes. The homogenate is centrifuged at 1500×g for 10 min at 4° C. (3100 rpm using SORVAL, model RT6000D, using rotor for 50 mL tubes). The pellet is discarded. The supernatant is centrifuged at 100,000×g for 60 min. at 4° C. (Beckman L8-80M ultracentrifuge; spin at 37,500 rpm with rotor type 70 Ti for 50 mL tubes; 38,000 rpm with type 80Ti for 15 mL tubes; or 35,800 rpm with rotor type 45Ti). The supernatant is discarded and the pellet suspended in 3 to 4 mL of Tris buffer (50 mM TRIS-HCl, pH 7.4). The protein content is estimated by the Bradford or Lowry method. The volume of the membrane suspension is adjusted with the membrane buffer (50 mM Tris-HCl containing 0.1 % BSA and 0.1 mM PMSF) to give 3.0 mg/mL (or as appropriate) of protein. The membranes are aliquoted and stored at −70° C.
C. Radioligand Binding Assay:
In wells of a 96-well format microtiter plate, is added 90, 110 or 130 μL (to make up a final volume of 200 μL) of assay buffer containing 50 mM of Tris-HCl (pH 7.4), […], 1 mg % aprotinin, 1 mg % leupeptin, 2 mg % 1,10-phenanthroline, 10 mg % trypsin inhibitor, and 0.1 mM PMSF. […]

OT % inhibition @ 100 nM | SMILES
34% | Cc1cc(C(=O)N2Cc3ccc(C(=O)NCc4ccccn4)n3Cc3ccccc32)ccc1C1=CCCCC1 [Example 5, 10-[4-(1-Cyclohex-1-en-1-yl)-3-methylbenzoyl]-N-(2-pyridinylmethyl)-10,11-dihydro-5H-pyrrolo[2,1-c][1,4]benzodiazepine-3-carboxamide]
31% | Cc1cc(C(=O)N2Cc3ccc(C(=O)NCc4cccnc4)n3Cc3ccccc32)ccc1C1=CCCCC1 [Example 6, 10-[4-(1-Cyclohex-1-en-1-yl)-3-methylbenzoyl]-N-(3-pyridinylmethyl)-10,11-dihydro-5H-pyrrolo[2,1-c][1 ,4]benzodiazepine-3-carboxamide]
42% | Cc1cc(C(=O)N2Cc3ccc(C(=O)NCCc4ccccn4)n3Cc3ccccc32)ccc1C1=CCCCC1 [Example 7, 10-[4-(1-Cyclohex-1-en-1-yl)-3-methylbenzoyl]-N-[2-(2-pyridinyl)ethyl]-10,11-pyrrolo[2,1-c][1,4]benzodiazepine-3-carboxamide]
84% | Cc1cc(C(=O)N2Cc3ccc(C(=O)N(C)CCc4ccccn4)n3Cc3ccccc32)ccc1C1=CCCCC1 [Example 8, 10-[4-(1-Cyclohex-1-en-1-yl)-3-methylbenzoyl]-N-methyl-N-[2-(2-pyridinyl)ethyl]-10,11-dihydro-5H-pyrrolo[2,1-c][1 ,4]benzodiazepine-3-carboxamide]
37% | Cc1cc(C(=O)N2Cc3ccc(C(=O)N4CCN(c5ccccn5)CC4)n3Cc3ccccc32)ccc1C1=CCCCC1 [Example 9, {10-[4-(1-Cyclohex-1-en-1-yl)-3-methylbenzoyl]-10,11-dihydro-5H-pyrrolo[2,1-c][1,4]benzodiazepin-3-yl}[4-(2-pyridinyl)-1-piperazinyl]methanone]
45% | Cc1cc(C(=O)N2Cc3ccc(C(=O)NCc4ccncc4)n3Cc3ccccc32)ccc1C1=CCCCC1 [Example 10, 10-[4-(1-Cyclohex-1-en-1-yl)-3-methylbenzoyl]-N-(4-pyridinylmethyl)-10,11-dihydro-5H-pyrrolo[2,1-c][1,4]benzodiazepine-3-carboxamide]
87% | Cc1cc(C(=O)N2Cc3ccc(C(=O)N(C)Cc4cccnc4)n3Cc3ccccc32)ccc1C1=CCCCC1 [Example 11, 10-[4-(1-Cyclohex-1-en-1-yl)-3-methylbenzoyl]-N-methyl-N-(3-pyridinylmethyl)-10,11-dihydro-5H-pyrrolo[2,1-c][1,4]benzodiazepine-3-carboxamide]
98% | Cc1cc(C(=O)N2Cc3ccc(C(=O)N4CCN(c5ccncc5)CC4)n3Cc3ccccc32)ccc1C1=CCCCC1 [Example 12, {10-[4-(1-Cyclohex-1-en-1-yl)-3-methylbenzoyl]-10,11-dihydro-5H-pyrrolo[2,1--c][1,4]benzodiazepin-3-yl}[4-(4-pyridinyl)-1-piperazinyl]methanone]
95% | Cc1cc(C(=O)N2Cc3ccc(C(=O)N(C)CCc4ccncc4)n3Cc3ccccc32)ccc1C1=CCCCC1 [Example 13, 10-[4-(1-Cyclohex-1-en-1-yl)-3-methylbenzoyl]-N-methyl-N-[2-(4-pyridinyl)ethyl]-10,11-dihydro-5H-pyrrolo[2,1-c][1,4]benzodiazepine-3-carboxamide]

SMILES | OT % inhibition @ 100 nM
CC1=C(c2ccc(C(=O)N3Cc4ccc(C(=O)N(C)Cc5cccnc5)n4Cc4ccccc43)cc2C)CCC[C@H]1O [Example 3, 10-[4-((3R)-3-Hydroxy-2-methyl-cyclohex-1-en-1-yl)-3-methyl-benzoyl]-10,11-dihydro-5H-pyrrolo[2,1-c][1,4]benzodiazepine-3-carboxylic acid methyl-pyridin-3-yl methyl-amide] | 96%
CC1=C(c2ccc(C(=O)N3Cc4ccc(C(=O)N(C)Cc5cccnc5)n4Cc4ccccc43)cc2C)CCC[C@H]1O.O=C(O)C(O)C(O)C(=O)O [Example 4, 10-[4-((3R)-3-Hydroxy-2-methyl-cyclohex-1-en-1-yl)-3-methyl-benzoyl]-10,11-dihydro-5H-pyrrolo[2,1-c][1,4]benzodiazepine-3-carboxylic acid methyl-pyridin-3-yl methyl-amide L-(+)-tartaric acid salt] | 99%

Same assay, conditions: [3H]oxytocin, value in parentheses, read-out: OT IC50

IC50 | SMILES
4.47 nM | COc1cc(C2=CCCCC2)c(Cl)cc1C(=O)N1Cc2ccc(C(=O)N(C)Cc3cccnc3)n2Cc2ccccc21 [Example 1, 10-(5-Chloro-4-cyclohex-1-en-1-yl-2-me3thoxybenzoyl)-N-methyl-N-(pyridin-3-ylmethyl)-10,11-dihydro-5H-pyrrolo [2,1-c][1,4]benzodiazepine-3-carboxamide]
3.17 nM | COc1cc(C2=CCCCC2)c(Cl)cc1C(=O)N1Cc2ccc(C(=O)N(C)Cc3cccnc3)n2Cc2ccccc21 [Example 2, 10-(5-Chloro-4-cyclohex-1-en-1-yl-2-methoxybenzoyl)-N-methyl-N-(pyridin-3-ylmethyl)-10,11-dihydro-5H-pyrrolo[2,1-c][1,4]benzodiazepine-3-carboxamide L-(+)-tartaric acid salt hemihydrate]
